Reference: patent publication US9687498B1, “Composition for preventing or treating muscle wasting-related disease and use thereof” (Samsung Electronics Co., Ltd., priority 2015, dated 2017)
Counter-ions that a name gives are not always drawn.

Key:
Type in all cases: cell-based, mouse
PGC-1 alpha 4 isoform = experiment: Real time PCR of PGC-1 alpha 4 isoform mRNA in differentiated C2C12 muscle cells; details: 10 μM compound in 0.1% DMSO, about 24 hours, normalized to GAPDH, vs DMSO negative control
Experimental: (§1) In detail, C2C12 cell line (mouse gastrocnemius muscle, ATCC® CRL-1772™) was seeded in a 10% FBS/DMEM culture medium. When the cells reached about 70% confluence in 5% CO2 incubator at 37° C., the culture medium was replaced by 2% FBS/DMEM, and further cultured for about 4 days to induce complete differentiation into muscle cells. The C2C12 cell line is a mouse myoblast cell line obtained through continuous culture of myoblasts cultured from the gastrocnemius muscle of C3H mice.
(§2) When the C2C12 cells were completely differentiated, the medium was removed, and 10 μM (in 0.1% DMSO) of active compound for screening was added to the cultured muscle cells, followed by incubation under conditions of 37° C. and 5% CO2 for about 24 hours. As the active compound for screening, a library of a total of 700 compounds (Selleck Chemicals) was used. Thereafter, the cultured muscle cells were washed with PBS to obtain muscle cells. As a negative control, muscle cells treated with DMSO (Sima-Aldrich), instead of the active compound for screening, were used. As a positive control, muscle cells treated with forskolin were used.
(§3) Total RNA was separated according to the manufacturer's protocol by adding a Trizol reagent (Invitrogen) to the obtained cells. cDNA was synthesized from the separated total RNA using reverse transcriptase. The mRNA levels of PGC-1 alpha 4 isoform and myostatin were quantified using a real time PCR (MyiQPCR instrument, BioRad), which is a device for measuring SYBR Green. The resulting amounts were then normalized to the amount of GAPDH mRNA.
(§4) After normalization of the values obtained from the amplification to GAPDH gene, relative mRNA expression levels of PGC-1 alpha 4 isoform and myostatin were quantified. The relative mRNA expression levels (Arbitrary Unit; AU) of PGC-1 alpha 4 isoform and myostatin thus quantified are shown in FIGS. 2A and 2B, respectively (*: p<0.05 vs. negative control).

myostatin = experiment: Real time PCR of myostatin mRNA in differentiated C2C12 muscle cells; details: 10 μM compound in 0.1% DMSO, about 24 hours, normalized to GAPDH, vs DMSO negative control
Experimental: as §1, §2, §3, §4

C2C12 cells = experiment: Muscle fiber diameter of differentiated C2C12 muscle cells (microscope); details: 100 μM compound, about 24 hours, vs DMSO negative control
Experimental: as §1
Muscle fiber-protecting effects of the compounds selected in 1. were examined by measuring the diameter of muscle fiber according to addition of the selected compounds.
As described in Example 1.1, C2C12 cells were completely differentiated to muscle cells. After removal of the medium, 4 ml of a fresh medium containing each 100 μM of isotretinoin (Roche), vismodegib (Genentech), or lincomycin hydrochloride (Sima-Aldrich) was added, and the cells were cultured in a 5% CO2 incubator at 37° C. for about 24 hours. As a negative control, muscle cells treated with DMSO (Sima-Aldrich), instead of the selected compounds, were used. As a positive control, muscle cells treated with forskolin were used.
Thereafter, the cultured cells were washed with PBS. Muscle fibers of the cells were photographed with a microscope (×200), and diameter (μm) of the muscle fiber was measured.

Compound	level (relative mRNA expression) of PGC-1 alpha 4 isoform compared to the negative control (PGC-1 alpha 4 isoform)	level (relative mRNA expression) of myostatin compared to the negative control (myostatin)	muscle fiber diameter compared to the negative control (C2C12 cells)
CC1=C(/C=C/C(C)=C/C=C/C(C)=C\C(=O)O)C(C)(C)CCC1 [isotretinoin, (2Z,4E,6E,8E)-3,7-dimethyl-9-(2,6,6-trimethylcyclohex-1-en-1-yl)nona-2,4,6,8-tetraenoic acid]	increasing	decreasing	increased
CCC[C@@H]1C[C@@H](C(=O)N[C@@H]([C@H]2O[C@H](SC)[C@H](O)[C@@H](O)[C@H]2O)[C@@H](C)O)N(C)C1 [lincomycin hydrochloride, (2S,4R)-N-[(1R,2R)-2-hydroxy-1-[(2R,3R,4S,5R,6R)-3,4,5-trihydroxy-6-(methylsulfanyl)oxan-2-yl]propyl]-1-methyl-4-propylpyrrolidine-2-carboxamide]	increasing	decreasing	increased
CS(=O)(=O)c1ccc(C(=O)Nc2ccc(Cl)c(-c3ccccn3)c2)c(Cl)c1 [vismodegib, 2-chloro-N-(4-chloro-3-pyridin-2-ylphenyl)-4-methylsulfonylbenzamide]	increasing	decreasing	increased
